Laboratory results from patent publication EP0612731B1, “Novel guinolone and naphthyridone derivatives” (BAYER AG, priority 1993, dated 1994).

The compounds below were run on HIV (assay: HIV infection in cell culture (syncytium formation in HIV-infected PBLs, modified method of Pauwels et al.)). Conditions: Human immunodeficiency virus 1, Lymphocyte, 72 h; HIV-infected normal human blood lymphocytes (PBL's); concentration suppressing 50% (ca. 10 Syncytien) of virus-induced syncytia; microscopic read-out day 3 to 6 after infection, 37°C.
Assay type: cell-based
Protocol: Der HIV-Test wurde mit geringen Modifikationen nach der Methode von Pauwels et al. [vgl. Journal of Virological Methods 20, (1988), 309-321] durchgeführt.
Normale menschliche Blutlymphozyten (PBL's) wurden über Ficoll-Hypaque angereichert und im RPMI 1640, 20% fötales Kälberserum mit Phythaemagglutinin (90 µg/ml) und Interleukin-2 (40 U/ml) stimuliert. Zur Infektion mit dem infektiösen HIV wurden PBL's pelletiert und das Zellpellet wurde anschließend in 1 ml HIV-Virusadsorptionslösung suspendiert und 1 Stunde bei 37°C inkubiert.
Die Virusadsorptionslösung wurde zentrifugiert und das infizierte Zellpellet in Wachstumsmedium aufgenommen, so daß 1 x 10^5 Zellen pro ml eingestellt waren. Die derart infizierten Zellen wurden zu 1 x 10^4 Zellen/Napf in die Näpfe von 96er Mikrotiterplatten pipettiert.
Die erste vertikale Reihe der Mikrotiterplatte enthielt nur Wachstumsmedium und Zellen, die nicht infiziert, aber ansonsten genauso wie oben beschrieben, behandelt worden waren (Zellkontrolle). Die zweite vertikale Reihe der Mikrotiterplatte erhielt nur HIV-infizierte Zellen (Viruskontrolle) in Wachstumsmedium. Die übrigen Näpfe enthielten die erfindungsgemäßen Verbindungen in unterschiedlichen Konzentrationen, ausgehend von den Näpfen der 3. vertikalen Reihe der Mikrotiterplatte, von der die Prüfsubstanzen in 2er Schritten 2^10fach verdünnt wurden.
Die Testansätze wurden so lange bei 37°C inkubiert, bis in der unbehandelten Viruskontrolle die für das HIV typische Syncytienbildung auftrat (zwischen Tag 3 und 6 nach Infektion), die dann mikroskopisch ausgewertet wurde. In der unbehandelten Viruskontrolle resultierten unter diesen Testbedingungen etwa 20 Syncytien, während die unbehandelte Zellkontrolle keine Syncytien aufwies.
Die IC50-Werte wurden als die Konzentration der erfindungsgemäßen Verbindungen ermittelt, bei der 50% (ca. 10 Syncytien) der virusinduzierten Syncytien durch die Behandlung mit der erfindungsgemäßen Verbindung unterdruckt waren.

Compared with `CCOc1ccccc1N1CCN(c2c(F)cc3c(=O)c(C(=O)O)cn(-c4ccc(Cn5cncn5)cc4)c3c2F)CC1` [Beispiel 146], `O=C(O)c1cn(-c2ccc(Cn3cncn3)cc2)c2cc(N3CCN(c4ccccc4)CC3)c(F)cc2c1=O` [Beispiel 39, 6-Fluor-1,4-dihydro-4-oxo-7-(4-phenylpiperazin-1-yl)-1-[4-(1H-1,2,4-triazol-1-yl-methyl)phenyl]-3-chinolin-carbonsäure] is 2.8-fold lower in IC50: 700 nM for the first, 250 nM for the second. The second is the more potent here.

First: O=C(O)c1cn(-c2ccc(Cn3ccnn3)cc2)c2cc(N3CCN(c4cccc(Cl)c4)CC3)c(F)cc2c1=O [Beispiel 14]
Second: COc1cccc(N2CCN(c3cc4c(cc3F)c(=O)c(C(=O)O)cn4-c3ccc(Cn4ccnn4)cc3)CC2)c1 [Beispiel 8]
The IC50 of the first is 4.3-fold lower: 700 nM for the first, 3000 nM for the second. The first is the more potent here.

`O=C(O)c1cn(-c2ccc(Cn3nccn3)cc2)c2cc(N3CCN(c4cccc(Cl)c4)CC3)c(F)cc2c1=O` [Beispiel 31] and `O=C(O)c1cn(-c2cccc(Cn3ccnn3)c2)c2cc(N3CCN(c4cccc(Cl)c4)CC3)c(F)cc2c1=O` [Beispiel 69] are the same in IC50: 700 nM for the first, 700 nM for the second.

First: CCOC(=O)c1cn(-c2ccccc2Cn2nccn2)c2cc(N3CCN(c4cccc(Cl)c4)CC3)c(F)cc2c1=O [Beispiel 113]
Second: O=C(O)c1cn(-c2ccc(Cn3ccnn3)cc2)c2nc(N3CCN(c4cccc(Cl)c4)CC3)c(F)cc2c1=O [Beispiel 23]
The IC50 of the first is 5-fold higher: 2000 nM for the first, 400 nM for the second. The second is the more potent here.

`O=C(O)c1cn(-c2cccc(Cn3cncn3)c2)c2nc(N3CCN(c4ccc(Cl)cc4)CC3)c(F)cc2c1=O` [Beispiel 92] and `O=C(O)c1cn(-c2ccc(Cn3cncn3)cc2)c2nc(N3CCN(c4ccccc4)CC3)c(F)cc2c1=O` [Beispiel 50, 6-Fluor-1,4-dihydro-4-oxo-7-(4-phenylpiperazin-1-yl)-1-[4-(1H-1,2,4-triazol-1-yl-methyl)phenyl]-1,8-naphthyridin-3-carbonsäure] are within 1.5-fold of each other in IC50: 600 nM for the first, 500 nM for the second.

`O=C(O)c1cn(-c2ccc(Cn3ccnn3)cc2)c2nc(N3CCN(c4ccccc4)CC3)c(F)cc2c1=O` [Beispiel 20, 6-Fluor-1,4-dihydro-4-oxo-7-(4-phenylpiperazin-1-yl)-1-[4-(1H-1,2,3-triazol-1-yl-methyl)-phenyl]-1,8-naphthyridin-3-carbonsäure] and `O=C(O)c1cn(-c2ccc(Cn3cncn3)cc2)c2nc(N3CCN(c4ccc(F)cc4)CC3)c(F)cc2c1=O` [Beispiel 51] are the same in IC50: 200 nM for the first, 200 nM for the second.
